Test results: BindingDB's records for patent US20240262804 (Hansoh Bio, 2024)

Target: T1, Myosin-7 (Bos taurus, UniProt Q9BE39)
T1 construct: gene MYH7
Test: Biochemical Assay
Method: In our experiments, bovine skinned cardiac myofibrils were isolated from the frozen bovine left ventricle as myosin's source in the ATPase assay. […] 75 μL of a solution containing bovine cardiac myofibrils, PK/LDH, and calcium were added to a 96 well plate for a 7 point dose-response. In some circumstances, 10 point-response was used to repeat the ATPase assays on compounds of interest. Compounds were added to the myofibrils solution and incubated for 5 minutes. The enzymatic reaction was started with the addition of 75 μL of a solution containing ATP, PEP, NADH, compounds, and calcium. The ATPase activity was measured by reading absorbance at 340 nm in a PerkinElmer Victor Nivo plate reader at 25° C. in kinetic mode for 15 minutes using clear bottom plates. The slopes of the absorbance changes as a function of time for the first 10 minutes were normalized to slopes on the control wells containing all reagents, including DMSO, but without compounds.

T1 sequence (Q9BE39 whole entry, looked up): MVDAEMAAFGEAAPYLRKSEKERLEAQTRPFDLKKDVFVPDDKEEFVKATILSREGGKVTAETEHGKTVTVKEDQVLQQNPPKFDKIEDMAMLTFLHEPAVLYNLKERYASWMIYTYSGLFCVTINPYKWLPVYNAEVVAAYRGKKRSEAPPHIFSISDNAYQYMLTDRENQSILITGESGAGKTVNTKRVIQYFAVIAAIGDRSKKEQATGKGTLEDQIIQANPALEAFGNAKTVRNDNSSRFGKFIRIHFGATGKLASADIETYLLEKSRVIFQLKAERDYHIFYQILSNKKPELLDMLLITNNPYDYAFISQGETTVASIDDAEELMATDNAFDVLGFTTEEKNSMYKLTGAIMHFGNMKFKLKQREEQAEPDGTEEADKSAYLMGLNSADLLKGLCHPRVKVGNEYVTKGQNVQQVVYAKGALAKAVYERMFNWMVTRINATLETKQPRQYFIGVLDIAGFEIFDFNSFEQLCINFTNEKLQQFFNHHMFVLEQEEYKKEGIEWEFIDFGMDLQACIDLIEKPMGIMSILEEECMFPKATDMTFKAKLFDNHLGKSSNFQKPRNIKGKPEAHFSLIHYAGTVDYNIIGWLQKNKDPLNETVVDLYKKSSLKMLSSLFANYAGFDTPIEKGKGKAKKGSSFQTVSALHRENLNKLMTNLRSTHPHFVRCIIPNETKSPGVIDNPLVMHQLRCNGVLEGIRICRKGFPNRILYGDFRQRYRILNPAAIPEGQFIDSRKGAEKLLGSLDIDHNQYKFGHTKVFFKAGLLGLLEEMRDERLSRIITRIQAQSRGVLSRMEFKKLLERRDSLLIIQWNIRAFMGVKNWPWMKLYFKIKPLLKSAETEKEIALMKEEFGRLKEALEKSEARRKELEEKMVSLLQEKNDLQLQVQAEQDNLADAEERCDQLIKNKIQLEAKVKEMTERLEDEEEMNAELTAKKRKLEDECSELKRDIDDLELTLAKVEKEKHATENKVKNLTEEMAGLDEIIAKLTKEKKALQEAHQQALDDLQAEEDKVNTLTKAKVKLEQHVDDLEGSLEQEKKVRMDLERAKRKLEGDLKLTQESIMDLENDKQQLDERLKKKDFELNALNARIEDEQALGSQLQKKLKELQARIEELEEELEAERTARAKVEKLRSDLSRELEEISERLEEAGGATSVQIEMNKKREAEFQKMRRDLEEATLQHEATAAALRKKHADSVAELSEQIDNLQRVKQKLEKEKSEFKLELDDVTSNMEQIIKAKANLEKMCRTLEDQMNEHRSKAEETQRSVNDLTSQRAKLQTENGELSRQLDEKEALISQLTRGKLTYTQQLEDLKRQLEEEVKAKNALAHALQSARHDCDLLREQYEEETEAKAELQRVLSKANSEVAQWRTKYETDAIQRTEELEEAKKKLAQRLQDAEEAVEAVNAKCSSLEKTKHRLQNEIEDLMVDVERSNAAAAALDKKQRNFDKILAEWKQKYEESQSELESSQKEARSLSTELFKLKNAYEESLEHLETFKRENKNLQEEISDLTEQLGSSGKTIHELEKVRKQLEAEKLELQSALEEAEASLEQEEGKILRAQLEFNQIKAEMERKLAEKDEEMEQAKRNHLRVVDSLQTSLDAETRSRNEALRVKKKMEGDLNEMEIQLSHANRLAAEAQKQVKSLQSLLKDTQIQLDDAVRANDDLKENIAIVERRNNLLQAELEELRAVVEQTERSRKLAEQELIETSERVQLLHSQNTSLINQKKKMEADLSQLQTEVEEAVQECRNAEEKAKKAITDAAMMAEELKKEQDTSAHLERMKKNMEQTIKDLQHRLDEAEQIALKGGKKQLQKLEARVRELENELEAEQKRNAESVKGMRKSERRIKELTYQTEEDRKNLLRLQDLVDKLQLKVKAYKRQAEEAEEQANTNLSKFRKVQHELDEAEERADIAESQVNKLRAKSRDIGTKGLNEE

SMILES	IC50 [nM]
C[C@H](Nc1nc(=O)n(-c2ccccc2)c(=O)[nH]1)C1CCCCC1 [US20240262804, Example 1]	8050
Cc1cccc([C@H](C)Nc2nc(=O)n(C3CCOCC3)c(=O)[nH]2)c1 [US20240262804, Example 4]	800
Cc1nn(C)cc1-c1cccc([C@H](C)Nc2nc(=O)n(C3CCOCC3)c(=O)[nH]2)c1 [US20240262804, Example 5]	3590
Cc1ccn(-c2cccc([C@H](C)Nc3nc(=O)n(C4CCOCC4)c(=O)[nH]3)c2)n1 [US20240262804, Example 6]	4010
C[C@H](Nc1nc(=O)n(C2CCOCC2)c(=O)[nH]1)c1cccc(C(C)(C)O)c1 [US20240262804, Example 8]	2460
CC(C)C(O)c1cccc([C@H](C)Nc2nc(=O)n(C3CCOCC3)c(=O)[nH]2)c1 (some centres undefined) [US20240262804, Example 9]	1180
C[C@H](Nc1nc(=O)n(C2CCOCC2)c(=O)[nH]1)c1ccc(F)cc1Cl [US20240262804, Example 162]	1210
C[C@H](Nc1nc(=O)n(C2CCOCC2)c(=O)[nH]1)c1cc(Cl)ccc1Cl [US20240262804, Example 163]	930
C[C@H](Nc1nc(=O)n(CC(F)(F)F)c(=O)[nH]1)c1ccc(Cl)c(Cl)c1 [US20240262804, Example 173]	2850
